Reference: patent US11629201B2, “PSMA-binding agents and uses thereof” (ITM Isotope Technologies Munich SE, priority 2017, dated 2023)
Several values for one entry are separate records, joined by “and”; a condition that tells them apart may be missing. Equal values may be shown once.

Columns and labels:
[1] = test system: PC-3 PIP/flu tumor-bearing mice; assay: Biodistribution studies in PC-3 PIP/flu tumor-bearing mice; conditions: for Tumor-to-blood / Tumor-to-kidney / Tumor-to-liver: PC-3 PIP tumor
mouse plasma proteins = assay: Ultrafiltration assay, binding to mouse plasma proteins; format: in vitro ADME
Description: Filter Assay. […] In addition, the radioligands were diluted in PBS (buffer solution without proteins) as a control experiment. Aliquots of the solutions were loaded onto an ultrafiltration device and centrifuged. The filtered activity was measured with a γ-counter and used for calculating the plasma protein-bound activity (retained on the filter membrane) as the percentage of total added activity. […] Statistical analysis (one-way ANOVA with Bonferroni's multiple comparison post-test) was performed using GraphPad Prism software, version 7. A p-value of <0.05 was considered statistically significant.

human plasma proteins = assay: Ultrafiltration assay, binding to human plasma proteins; conditions: human plasma, ultrafiltration
Description: Therefore, the compounds were labeled with ^177Lu at a specific activity of 50 MBq/nmol and incubated in human plasma samples or PBS at room temperature. The free and plasma-bound fractions were separated using a centrifree ultrafiltration device (4104 centrifugal filter units [Millipore]; 30000 Da nominal molecular weight limit, methylcellulose micropartition membranes). The incubated solution was loaded to the ultrafiltration device and centrifuged at 2500 rpm for 40 min at 20° C. Samples from the filtrate were taken an analyzed for radioactivity in a gamma-counter. The amount of plasma-bound compound was calculated as the fraction of radioactivity measured in the filtrate relative to the corresponding loading solution (set to 100%).
Determination of Albumin-binding Properties. The binding of the radioligands to human plasma proteins was determined by an ultrafiltration assay. […] Three independent experiments were performed in duplicates with both radioligands and the data was fitted to a semi-logarithmic plot (non-linear regression, one-site, specific binding) to obtain the half maximum binding (B50) in GraphPad Prism software (version 7).
The ^177Lu-labeled PSMA ligands (50 MBq/nmol) were diluted in mouse plasma (Rockland, USA) and human plasma (Stiftung Blutspende SRK Aargau-Solothurn, Switzerland), respectively, and incubated for 15 min at room temperature. In addition, the radioligands were diluted in PBS (buffer solution without proteins) as a control experiment. Aliquots of the solutions were loaded onto an ultrafiltration device and centrifuged. The filtered activity was measured with a γ-counter and used for calculating the plasma protein-bound activity (retained on the filter membrane) as the percentage of total added activity. […] Statistical analysis (one-way ANOVA with Bonferroni's multiple comparison post-test) was performed using GraphPad Prism software, version 7. A p-value of <0.05 was considered statistically significant.

[2] = test system: PSMA-positive PC-3 PIP cells; assay: Cell uptake and internalization in PSMA-positive PC-3 PIP cells; format: cell-based
[3] = non-decay-corrected biodistribution data up to 192 h p.i.

## O=C(O)CCC(NC(=O)NC(CCCCNC(=O)C(Cc1ccc2ccccc2c1)NC(=O)C1CCC(CNC(=O)C(CCCCNC(=O)CN2CCN(CC(=O)O)CCN(CC(=O)O)CCN(CC(=O)O)CC2)NC(=O)CC(NC(=O)CC(NC(=O)CCCc2ccc(I)cc2)C(=O)O)C(=O)O)CC1)C(=O)O)C(=O)O (stereo not shown) [^177Lu-PSMA-ALB-05, metal not drawn]
[1]; 1 h p.i.
  Tumor-to-blood: 2.31 ± 0.58
  Tumor-to-kidney: 0.79 ± 0.02
  Tumor-to-liver: 8.65 ± 2.21
[1]; 4 h p.i.
  Blood: 10.2 ± 1.98 % IA/g
  Bone: 1.67 ± 0.27 % IA/g
  Heart: 3.82 ± 0.63 % IA/g
  Intestines: 1.33 ± 0.25 % IA/g
  Kidneys: 52.8 ± 7.17 % IA/g
  Liver: 2.96 ± 0.50 % IA/g
  Lung: 7.07 ± 1.44 % IA/g
  Muscle: 1.30 ± 0.23 % IA/g
  PC-3 PIP Tumor: 75.3 ± 15.3 % IA/g
  PC-3 flu Tumor: 2.10 ± 0.20 % IA/g
  Salivary glands: 2.75 ± 0.72 % IA/g
  Spleen: 3.29 ± 0.74 % IA/g
  Stomach: 1.15 ± 0.17 % IA/g
  Tumor-to-blood: 7.43 ± 1.43
  Tumor-to-kidney: 1.42 ± 0.19
  Tumor-to-liver: 25.6 ± 4.58
[1]; 24 h p.i.
  Blood: 1.67 ± 0.29 % IA/g
  Bone: 0.31 ± 0.08 % IA/g
  Heart: 0.65 ± 0.11 % IA/g
  Intestines: 0.28 ± 0.05 % IA/g
  Kidneys: 23.9 ± 4.02 % IA/g
  Liver: 0.82 ± 0.35 % IA/g
  Lung: 1.80 ± 0.78 % IA/g
  Muscle: 0.19 ± 0.06 % IA/g
  PC-3 PIP Tumor: 79.4 ± 11.1 % IA/g
  PC-3 flu Tumor: 0.59 ± 0.10 % IA/g
  Salivary glands: 0.49 ± 0.10 % IA/g
  Spleen: 1.13 ± 0.23 % IA/g
  Stomach: 0.28 ± 0.06 % IA/g
  Tumor-to-blood: 48.2 ± 7.04 and 48 ± 6.4
  Tumor-to-kidney: 3.38 ± 0.58 and 3.4 ± 0.5
  Tumor-to-liver: 106 ± 28.6 and 106 ± 26
[1]; 48 h p.i.
  Blood: 1.66 ± 0.37 % IA/g
  Bone: 0.28 ± 0.05 % IA/g
  Heart: 0.54 ± 0.15 % IA/g
  Intestines: 0.28 ± 0.10 % IA/g
  Kidneys: 12.8 ± 2.62 % IA/g
  Liver: 0.56 ± 0.16 % IA/g
  Lung: 1.48 ± 0.62 % IA/g
  Muscle: 0.20 ± 0.08 % IA/g
  PC-3 PIP Tumor: 60.3 ± 10.7 % IA/g
  PC-3 flu Tumor: 0.57 ± 0.09 % IA/g
  Salivary glands: 0.45 ± 0.10 % IA/g
  Spleen: 0.71 ± 0.23 % IA/g
  Stomach: 0.29 ± 0.08 % IA/g
  Tumor-to-blood: 36.7 ± 1.81 and 38 ± 2.5
  Tumor-to-kidney: 4.72 ± 0.18 and 5.0 ± 0.7
  Tumor-to-liver: 110 ± 12.2 and 100 ± 32
[1]; 96 h p.i.
  Blood: 1.79 ± 0.57 % IA/g
  Bone: 0.28 ± 0.04 % IA/g
  Heart: 0.70 ± 0.21 % IA/g
  Intestines: 0.30 ± 0.11 % IA/g
  Kidneys: 6.89 ± 0.31 % IA/g
  Liver: 0.74 ± 0.14 % IA/g
  Lung: 1.36 ± 0.29 % IA/g
  Muscle: 0.15 ± 0.06 % IA/g
  PC-3 PIP Tumor: 45.0 ± 7.94 % IA/g
  PC-3 flu Tumor: 0.49 ± 0.11 % IA/g
  Salivary glands: 0.46 ± 0.10 % IA/g
  Spleen: 0.64 ± 0.29 % IA/g
  Stomach: 0.24 ± 0.07 % IA/g
  Tumor-to-blood: 27.1 ± 10.0
  Tumor-to-kidney: 6.51 ± 0.98
  Tumor-to-liver: 62.8 ± 18.8
[1]; 144 h p.i.
  Blood: 1.75 ± 0.35 % IA/g
  Bone: 0.25 ± 0.05 % IA/g
  Heart: 0.65 ± 0.17 % IA/g
  Intestines: 0.27 ± 0.05 % IA/g
  Kidneys: 4.28 ± 0.26 % IA/g
  Liver: 0.72 ± 0.13 % IA/g
  Lung: 1.25 ± 0.18 % IA/g
  Muscle: 0.17 ± 0.04 % IA/g
  PC-3 PIP Tumor: 33.9 ± 0.80 % IA/g
  PC-3 flu Tumor: 0.52 ± 0.13 % IA/g
  Salivary glands: 0.46 ± 0.09 % IA/g
  Spleen: 0.56 ± 0.08 % IA/g
  Stomach: 0.23 ± 0.04 % IA/g
  Tumor-to-blood: 19.9 ± 3.88
  Tumor-to-kidney: 7.93 ± 0.30
  Tumor-to-liver: 47.9 ± 8.28
[1]; 192 h p.i.
  Blood: 1.48 ± 0.13 % IA/g
  Bone: 0.26 ± 0.04 % IA/g
  Heart: 0.59 ± 0.05 % IA/g
  Intestines: 0.24 ± 0.04 % IA/g
  Kidneys: 2.70 ± 0.36 % IA/g
  Liver: 0.84 ± 0.06 % IA/g
  Lung: 1.22 ± 0.26 % IA/g
  Muscle: 0.14 ± 0.01 % IA/g
  PC-3 PIP Tumor: 27.9 ± 3.24 % IA/g
  PC-3 flu Tumor: 0.45 ± 0.06 % IA/g
  Salivary glands: 0.37 ± 0.04 % IA/g
  Spleen: 0.55 ± 0.10 % IA/g
  Stomach: 0.16 ± 0.04 % IA/g
  Tumor-to-blood: 19.0 ± 2.97
  Tumor-to-kidney: 10.4 ± 0.25
  Tumor-to-liver: 33.4 ± 1.64
[1]; [3]
  AUC PC-3 PIP tumor: 6741 ± 421 % IA/g · h
  AUC blood: 387 ± 32 % IA/g · h
  AUC kidneys: 1837 ± 112 % IA/g · h
  AUC liver: 131 ± 11 % IA/g · h
[1]; tumor to blood
  Ratio of AUCs AUCTu-to-AUCBl: 17
[1]; tumor to kidneys
  Ratio of AUCs AUC-Tu-to-AUC-Ki: 3.7
[1]; tumor to liver
  Ratio of AUCs AUCTu-to-AUCLi: 52
Mouse plasma proteins
  plasma protein-bound fraction: 77±2.1%
Human plasma proteins
  plasma protein-bound fraction: 95±0.6%
[2]; 2 h
  cell uptake: 52-57%
  internalized fraction: 18-24%
[2]; 4 h
  cell uptake: 60-63%
  internalized fraction: 20-26%
